# “Also recorded” adds a separate entry of the source.
# Tests used:
# P. aerug = assay: Antibiotic activity, MIC; type: cell-based
# Source text: (§1) Thus, it is possible to achieve an antimicrobial steroid with or without squalamine-like pharmacological activity.
# S. aureus = assay: Antibiotic activity, MIC; type: cell-based; conditions: Staphylococcus aureus
# Source text: as §1
# E. coli = assay: Antibiotic activity, MIC; type: cell-based; conditions: Escherichia coli
# Source text: as §1
# C. albicans = assay: Antibiotic activity, MIC; type: cell-based; conditions: Candida albicans
# Source text: as §1
# MTT assay (Table II) = type: cell-based; conditions: read-out: Minimum Effective Concentration, MTT assay
# Source text: (§2) As set forth in Table II, which follows Table I, the activities of natural and synthetic aminosterols in the different assays vary. In light of the foregoing, it is now possible to screen for steroids with or without squalamine-like pharmacological activity.
# [1] = test system: human microvascular cells; assay: Inhibition of endothelial cell cord formation in vitro; type: cell-based; conditions: Homo sapiens, Endothelial cell; Table II; read-out: Minimum Effective Concentration, Cord Formation
# Source text: Endothelial cells have the capacity in vitro to form tubular aggregates resembling capillaries in various early stages of formation. This conversion occurs under relatively specific conditions, in which essential growth factors along with an effective substratum are provided. It has been shown that both the interaction of growth factors with the endothelial cell and its attachment to a substratum activate the NHE. The activation of this exchanger is believed to be required for subsequent morphologic transformation of the endothelial cell into a multicellular tubular structure.
# To assess the effect of compounds on the cord-like structures formed by human microvascular cells when plated in the presence of VEGF (Vascular Endothelial Growth Factor) and basic fibroblast growth factor on a collagen matrix, a standard cord formation assay was used.
# Lic = assay: MTT Lic (Table II); type: cell-based; conditions: read-out: Minimum Effective Concentration, MTT Lic
# Source text: as §2
# [2] = test system: Xenopus tadpole, stage 59-60; assay: Tadpole assay; type: in vivo, Xenopus laevis; conditions: 10 μg/ml; for pharmacological response in tadpole (words): stage 59-60
# Source text: For example, substances that destroy all of the animal's epithelium, both adult and embryonic, could be regarded as toxic.
# The volume of liquid is sufficient for the animal to swim freely and drink from the solution. […] If the volume of liquid is not sufficient to permit oral intake, the effects that are observed would result from absorption through the surface epithelium.
# In another embodiment of this assay, a solution of a compound in water can be injected directly into the abdomen of the animal using standard techniques.
# After an amount of time, typically about 60 minutes, the occlusion of blood flow through capillaries in the tadpole's tail are observed under an inverted microscope at a magnification of roughly 100×.
# In the assay, each of the steroids was dissolved in 100 ml of distilled water at a concentration of 10 μg/ml. Stage 59-60 Xenopus tadpoles were introduced and evaluated by light microscopy and gross observation 1 hour later.
# vitelline capillaries = assay: Chick embryo vitelline capillary regression assay; type: in vivo
# Experimental: Using the chick embryo vitelline capillaries assay, compounds were tested for their ability to induce capillary regression. Each compound was applied in 0.1 ml of 15% Ficol 400 and PBS onto the embryo, and vascular regression was assessed after 60 minutes.
# The 3-day chick embryo consists of an embryonic disc from which numerous vessels emerge and return, forming a "FIG. 8"-shaped structure--the embryo in the center with vascular loops extending outward over both poles. […] Following a lag period of around 15 minutes, the constriction of continuity between capillary and secondary vessels, generally on the "venous" side, was observed. Continued pulsatile blood flow progressed, resulting in a "swelling" of the blind tube, followed by a pinching off of the remaining connection and formation of an enclosed vascular sac resembling a "blood island." This process progressed until only the largest vessels remained intact.
# [3] = test system: Human ovarian carcinoma SKOV3; assay: Growth inhibition in vitro (Table 7); type: cell-based
# Experimental: As set forth in Table 7 below, all malignant tumors evaluated in tissue culture, endothelial cells and vascular smooth muscle cells were sensitive to inhibition. Thus, compound 1436 has application in the control of growth factor dependent proliferation of many types of tissue.
# Using the assay described above, the anticancer effects of compound 1437 against several cancer lines was assessed.
# [4] = Effect on fasting blood glucose in mice; type: in vivo, mouse; conditions: i.v.
# Experimental: To study the effect of steroid administrator or the NHE responsible for secretion of insulin, several of the aminosterols from shark liver were administered to fasting mice. Male CD-1 mice were assigned to one of four treatment groups. Whole blood glucose was tested using glucometer (Lifescan Glucometer II and One Touch test strips). Statistical analysis was via one-way analysis of variance (ANOVA) followed by subsequent Bonferonni's t-test.
# rabbit NHE3 = biological target: T1, rabbit NHE3 (Oryctolagus cuniculus, UniProt P26432); conditions: existing agents such as amiloride; cited from earlier work
# T1 construct: BCECF internal pH recovery
# T1 sequence (P26432 30-832): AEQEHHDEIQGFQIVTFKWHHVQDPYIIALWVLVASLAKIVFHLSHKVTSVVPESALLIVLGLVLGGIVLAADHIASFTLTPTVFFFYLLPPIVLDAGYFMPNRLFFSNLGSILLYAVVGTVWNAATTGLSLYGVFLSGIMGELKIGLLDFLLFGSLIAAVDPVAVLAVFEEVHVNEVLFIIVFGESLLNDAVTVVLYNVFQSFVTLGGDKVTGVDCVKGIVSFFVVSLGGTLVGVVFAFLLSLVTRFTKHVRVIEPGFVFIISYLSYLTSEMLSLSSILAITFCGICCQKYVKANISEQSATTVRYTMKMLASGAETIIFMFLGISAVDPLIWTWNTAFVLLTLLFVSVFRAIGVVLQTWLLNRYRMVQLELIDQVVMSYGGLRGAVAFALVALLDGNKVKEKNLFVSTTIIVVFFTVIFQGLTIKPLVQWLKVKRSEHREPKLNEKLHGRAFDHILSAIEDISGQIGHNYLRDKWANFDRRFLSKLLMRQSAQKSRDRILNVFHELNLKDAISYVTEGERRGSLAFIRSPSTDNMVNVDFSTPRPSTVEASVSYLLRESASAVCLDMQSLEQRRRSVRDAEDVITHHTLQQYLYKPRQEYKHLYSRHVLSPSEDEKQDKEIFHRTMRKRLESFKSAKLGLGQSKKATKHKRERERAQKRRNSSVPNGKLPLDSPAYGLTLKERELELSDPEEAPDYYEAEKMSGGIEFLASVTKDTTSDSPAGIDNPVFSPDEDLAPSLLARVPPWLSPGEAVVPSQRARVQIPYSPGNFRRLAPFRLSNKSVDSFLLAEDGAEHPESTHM
# NHE1β = conditions: nucleated erythrocyte isoform; cited from earlier work
structure (smiles),measurement,setting,value
CC(O)[C@H]1CC[C@H]2[C@@H]3CC[C@H]4C[C@@H](NCCCNCCCCN)CC[C@]4(C)[C@H]3CC[C@]12C (stereo partly shown),MIC,P. aerug,256 µg/mL
same,MIC,S. aureus,4 µg/mL
same,MIC,E. coli,32 to 64 µg/mL
same,MIC,C. albicans,64 µg/mL
CC(O)[C@H]1CC[C@H]2[C@@H]3CC[C@H]4C[C@H](NCCCNCCCCN)CC[C@]4(C)[C@H]3CC[C@]12C (stereo partly shown),MIC,P. aerug,128 µg/mL
same,MIC,S. aureus,16 µg/mL
same,MIC,E. coli,64 µg/mL
same,MIC,C. albicans,128 µg/mL
COC(=O)CCC(C)[C@H]1CCC2C3C(CC[C@@]21C)[C@@]1(C)CC[C@@H](NCCN)C[C@H]1C[C@H]3O (stereo partly shown),minimal effective concentration,MTT assay (Table II),2.5 µg/mL
CC(CC[C@@H](OS(=O)(=O)O)C(C)C)[C@H]1CCC2C3C(CC[C@@]21C)[C@@]1(C)CC[C@H](NCCCNCCCCN)C[C@@H]1C[C@H]3O (stereo partly shown),minimal effective concentration,[1],0.01 to 0.1 µg/mL
same,minimal effective concentration,Lic,13.2 µg/mL
CC(CC[C@@H](OS(=O)(=O)O)C(C)C)[C@H]1CCC2C3C(CC[C@@]21C)[C@@]1(C)CC[C@H](NCCCNCCCCNCCCN)C[C@@H]1C[C@H]3O (stereo partly shown),minimal effective concentration,Lic,16.7 µg/mL
"CC(COS(=O)(=O)O)C(=O)CC[C@@H](C)[C@H]1CC[C@H]2[C@@H]3[C@H](O)C[C@H]4C[C@@H](NCCCNCCCCN)CC[C@]4(C)[C@H]3CC[C@]12C (single isomer, unassigned) [Compound 1360]",pharmacological response in tadpole (words),[2],"Swelling and lysis of certain erythrocytes occurred, resulting in accumulation of nuclei within certain small vessels of the tail. Subsequent tissue breakdown occurred in areas of tail surrounding these nuclear plugs"
same,pharmacological response in tadpole (words),[2]; listed as compound 1360,extensive vasocclusion occurred within 60 minutes throughout the tail
same,effect on circulating embryonic blood,vitelline capillaries; within 20 minutes,the blood circulating through the embryonic vessels exhibited a brighter red color
"CC(C)C(CO)(CC[C@@H](C)[C@H]1CC[C@H]2[C@@H]3[C@H](O)C[C@H]4C[C@@H](NCCCNCCCCN)CC[C@]4(C)[C@H]3CC[C@]12C)OS(=O)(=O)O (single isomer, unassigned) [Compound 1437]",anticancer activity,[3],exhibit anticancer activity
same,tissues or functions not affected in tadpole,[2],"Animal was otherwise active, with little tissue breakdown noted"
same,pharmacological response in tadpole (words),[2],"Epithelium covering the embryonic portions of the animal, such as the tail and antennae, began to slough off in sheets; also recorded: dramatic effect on the embryonic epithelium covering the tadpole tale"
same,blood glucose effect,[4],caused hyperglycemia in mice
N=C(N)NC(=O)c1nc(Cl)c(N)nc1N [Amiloride],effect on Vmax of NHE3 (existing agents),rabbit NHE3,affected only Vmax
same,inhibition of NHE1β,NHE1β,inhibited by high concentrations
CC(C)CCC[C@@H](C)[C@H]1CC[C@H]2[C@@H]3[C@H](O)C[C@H]4C[C@H](NCCCNCCCCN)CC[C@]4(C)[C@H]3CC[C@]12C [Compound 370],pharmacological response in tadpole (words),[2],pharmacologic activity similar to that seen for FX 3
CC(C)CCC[C@@H](C)[C@H]1CC[C@H]2[C@@H]3[C@H](O)C[C@H]4C[C@@H](NCCCNCCCCN)CC[C@]4(C)[C@H]3CC[C@]12C [Compound 371],pharmacological response in tadpole (words),[2],effects like those produced by compound 1436
COC(=O)CC[C@@H](C)[C@H]1CC[C@H]2[C@@H]3[C@H](O)C[C@@H]4C[C@@H](NCCN)CC[C@]4(C)[C@H]3CC[C@]12C [Compound 409],pharmacological response in tadpole (words),[2],functionally similar to compound 1437
COC(=O)CC[C@@H](C)[C@H]1CC[C@H]2[C@@H]3[C@H](O)C[C@@H]4C[C@H](NCCN)CC[C@]4(C)[C@H]3CC[C@]12C [Compound 410],pharmacological response in tadpole (words),[2],functionally similar to compound 1437
C[C@H](CCC(=O)O)[C@H]1CC[C@H]2[C@@H]3[C@H](O)C[C@@H]4C[C@H](NCCCNCCCCNCCCN)CC[C@]4(C)[C@H]3CC[C@]12C [Compound 412],pharmacological response in tadpole (words),[2],pharmacologic activity similar to that seen for FX 3
C[C@H](CCC(=O)O)[C@H]1CC[C@H]2[C@@H]3[C@H](O)C[C@@H]4C[C@@H](NCCCNCCCCNCCCN)CC[C@]4(C)[C@H]3CC[C@]12C [Compound 413],pharmacological response in tadpole (words),[2],effects like those produced by compound 1436
C[C@H](CCC(=O)O)[C@H]1CC[C@H]2[C@@H]3[C@H](O)C[C@@H]4C[C@H](NCCN)CC[C@]4(C)[C@H]3CC[C@]12C [Compound 414],pharmacological response in tadpole (words),[2],pharmacologic activity similar to Fraction 1
C[C@H](CCC(=O)O)[C@H]1CC[C@H]2[C@@H]3[C@H](O)C[C@@H]4C[C@@H](NCCN)CC[C@]4(C)[C@H]3CC[C@]12C [Compound 415],activity on vitelline capillaries,vitelline capillaries,especially active
COC(=O)CC[C@@H](C)[C@H]1CC[C@H]2[C@@H]3CC[C@@H]4C[C@H](NCCN)CC[C@]4(C)[C@H]3C[C@H](O)[C@]12C [Compound 416],pharmacological response in tadpole (words),[2],functionally similar to compound 1437
COC(=O)CC[C@@H](C)[C@H]1CC[C@H]2[C@@H]3C[C@@H](O)[C@H]4C[C@H](NCCN)CC[C@]4(C)[C@H]3CC[C@]12C [Compound 431],pharmacological response in tadpole (words),[2],functionally similar to compound 1437
COC(=O)CC[C@@H](C)[C@H]1CC[C@H]2[C@@H]3C[C@@H](O)[C@H]4C[C@@H](NCCN)CC[C@]4(C)[C@H]3CC[C@]12C [Compound 432],pharmacological response in tadpole (words),[2],functionally similar to compound 1437
C[C@H](CCC(=O)O)[C@H]1CC[C@H]2[C@@H]3C[C@@H](O)[C@H]4C[C@@H](NCCN)CC[C@]4(C)[C@H]3CC[C@]12C [Compound 433],pharmacological response in tadpole (words),[2],functionally similar to compound 1437
COC(=O)CC[C@@H](C)[C@H]1CC[C@H]2[C@@H]3CC[C@H]4C[C@H](NCCCNCCCCNCCCN)CC[C@]4(C)[C@H]3CC[C@]12C [Compound 458],pharmacological response in tadpole (words),[2],pharmacologic activity similar to that seen for FX 3
COC(=O)CC[C@@H](C)[C@H]1CC[C@H]2[C@@H]3CC[C@H]4C[C@@H](NCCCNCCCCNCCCN)CC[C@]4(C)[C@H]3CC[C@]12C [Compound 459],pharmacological response in tadpole (words),[2],pharmacologic activity similar to that seen for FX 3
COC(=O)CC[C@@H](C)[C@H]1CC[C@H]2[C@@H]3C[C@@H](O)[C@H]4C[C@H](NCCCNCCCCNCCCN)CC[C@]4(C)[C@H]3CC[C@]12C [Compound 465],pharmacological response in tadpole (words),[2],pharmacologic activity similar to that seen for FX 3
COC(=O)CC[C@@H](C)[C@H]1CC[C@H]2[C@@H]3C[C@@H](O)[C@H]4C[C@@H](NCCCNCCCCNCCCN)CC[C@]4(C)[C@H]3CC[C@]12C [Compound 466],pharmacological response in tadpole (words),[2],pharmacologic activity similar to that seen for FX 3
CC(C)CCC[C@@H](C)[C@H]1CC[C@H]2[C@@H]3[C@H](O)C[C@H]4C[C@H](N)CC[C@]4(C)[C@H]3CC[C@]12C [Compound 1363],pharmacological response in tadpole (words),[2],pharmacologic activity similar to Fraction 1
CC(C)CCC[C@@H](C)[C@H]1CC[C@H]2[C@@H]3CC[C@H]4C[C@@H](NCCCNCCCCNCCCN)CC[C@]4(C)[C@H]3CC[C@]12C [drawing 86],minimal effective concentration,MTT assay (Table II),3 µg/mL
CC(C)CCC[C@@H](C)[C@H]1CC[C@H]2[C@@H]3[C@H](O)C[C@H]4C[C@H](NCCCNCCCCN)CC[C@]4(C)[C@H]3CC[C@]12C [drawing 94],minimal effective concentration,MTT assay (Table II),4 µg/mL
